Laboratory results published in PubChem BioAssay (NCI).
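Tested at 5 concentrations; 48 h exposure; 96-well plates; endpoints linearly interpolated, else capped at highest concentration. TGI marks complete inhibition of growth.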

Experiments:
Assay in all cases: DTP human tumour cell line panel, 48 h
HS 578T breast = system: HS 578T breast
CCRF-CEM leukemia = system: CCRF-CEM leukemia
EKVX NSCLC = system: EKVX NSCLC
SN12C renal = system: SN12C renal
OVCAR-8 ovarian = system: OVCAR-8 ovarian
SK-MEL-2 melanoma = system: SK-MEL-2 melanoma
K-562 leukemia = system: K-562 leukemia
SW-620 colon = system: SW-620 colon
UACC-62 melanoma = system: UACC-62 melanoma
COLO 205 colon = system: COLO 205 colon
SK-OV-3 ovarian = system: SK-OV-3 ovarian
T-47D breast = system: T-47D breast
NCI-H226 lung = system: NCI-H226 lung
A549 NSCLC = system: A549 NSCLC
HCT-116 colon = system: HCT-116 colon
IGROV1 ovarian = system: IGROV1 ovarian
HCC-2998 colon = system: HCC-2998 colon
RPMI-8226 leukemia = system: RPMI-8226 leukemia
HL-60(TB) leukemia = system: HL-60(TB) leukemia
HOP-62 NSCLC = system: HOP-62 NSCLC
KM12 colon = system: KM12 colon
MCF7 breast = system: MCF7 breast
MDA-N = system: MDA-N
MOLT-4 leukemia = system: MOLT-4 leukemia
DU-145 prostate = system: DU-145 prostate
SR leukemia = system: SR leukemia
NCI-H522 lung = system: NCI-H522 lung
MDA-MB-231 breast = system: MDA-MB-231 breast
NCI/ADR-RES ovarian = system: NCI/ADR-RES ovarian
NCI-H23 lung = system: NCI-H23 lung
SF-539 CNS = system: SF-539 CNS
MALME-3M melanoma = system: MALME-3M melanoma
786-0 renal = system: 786-0 renal
SF-295 CNS = system: SF-295 CNS
PC-3 prostate = system: PC-3 prostate
UACC-257 melanoma = system: UACC-257 melanoma
SF-268 CNS = system: SF-268 CNS
SK-MEL-5 melanoma = system: SK-MEL-5 melanoma
RXF 393 renal = system: RXF 393 renal
U251 CNS = system: U251 CNS
A498 renal = system: A498 renal
ACHN renal = system: ACHN renal
UO-31 renal = system: UO-31 renal
LOX IMVI melanoma = system: LOX IMVI melanoma
OVCAR-5 ovarian = system: OVCAR-5 ovarian
SK-MEL-28 melanoma = system: SK-MEL-28 melanoma
HT29 colon = system: HT29 colon
M14 melanoma = system: M14 melanoma
HCT-15 colon = system: HCT-15 colon
MDA-MB-435 = system: MDA-MB-435
SNB-75 CNS = system: SNB-75 CNS
CAKI-1 renal = system: CAKI-1 renal
OVCAR-4 ovarian = system: OVCAR-4 ovarian
OVCAR-3 ovarian = system: OVCAR-3 ovarian
TK-10 renal = system: TK-10 renal
NCI-H460 lung = system: NCI-H460 lung
HOP-92 NSCLC = system: HOP-92 NSCLC
SNB-19 CNS = system: SNB-19 CNS
BT-549 breast = system: BT-549 breast

Measured: TGI

CCOC(=O)C(/C=N\C(=S)Nc1c(CC)cccc1C(C)(C)C)=C(/O)c1ccccc1
87.5 µM: HS 578T breast
not listed: OVCAR-3 ovarian | TK-10 renal | NCI-H460 lung | HOP-92 NSCLC | SNB-19 CNS | BT-549 breast
> 100 µM: all other assays above

CCOCCOC(=O)C1CCC(=O)N1CN(C(C)=O)c1cc(OC)ccc1OC (stereo not given)
not listed: CCRF-CEM leukemia | HCC-2998 colon | HL-60(TB) leukemia | BT-549 breast
> 100 µM: all other assays above

CN(C)/C=C1\CCc2ccc([N+](=O)[O-])cc2C1=O
62.2 µM: RPMI-8226 leukemia
42.6 µM: LOX IMVI melanoma
38.1 µM: MDA-N
34.2 µM: OVCAR-4 ovarian
56.8 µM: K-562 leukemia
36 µM: HCT-116 colon
41.2 µM: OVCAR-3 ovarian
48 µM: MCF7 breast
74.2 µM: SR leukemia
34.8 µM: MDA-MB-435
43.5 µM: COLO 205 colon
53.7 µM: HT29 colon
51 µM: MOLT-4 leukemia
43.8 µM: MDA-MB-231 breast
89.6 µM: T-47D breast
52.4 µM: CCRF-CEM leukemia
76.4 µM: UACC-62 melanoma
97.1 µM: SW-620 colon
66.6 µM: HL-60(TB) leukemia
38.2 µM: UACC-257 melanoma
40.4 µM: SN12C renal
not listed: SF-539 CNS | HOP-92 NSCLC | BT-549 breast
> 100 µM: all other assays above

CC(C)(Cl)C(Br)CCC(C)(Br)C(Br)CBr (stereo not given)
31.6 µM: NCI/ADR-RES ovarian
46.5 µM: HS 578T breast
33.6 µM: SK-MEL-28 melanoma
25.8 µM: HCC-2998 colon
64.7 µM: PC-3 prostate
30.3 µM: SK-MEL-2 melanoma
46.4 µM: T-47D breast
38.6 µM: NCI-H23 lung
31.4 µM: SW-620 colon
35.3 µM: MDA-MB-435
54.6 µM: SNB-19 CNS
42.8 µM: BT-549 breast
31.8 µM: MALME-3M melanoma
31.2 µM: 786-0 renal | OVCAR-5 ovarian
29.7 µM: OVCAR-8 ovarian
70.3 µM: EKVX NSCLC
33.7 µM: M14 melanoma
39.2 µM: DU-145 prostate
39.9 µM: IGROV1 ovarian
40.1 µM: RPMI-8226 leukemia
32.8 µM: SF-295 CNS
36 µM: KM12 colon
32.5 µM: HOP-62 NSCLC
> 100 µM: K-562 leukemia | SK-OV-3 ovarian
36.1 µM: UO-31 renal
62.2 µM: TK-10 renal
29.2 µM: HT29 colon
35.8 µM: SN12C renal
36.5 µM: HL-60(TB) leukemia
48.3 µM: UACC-62 melanoma
26.5 µM: NCI-H522 lung
38 µM: RXF 393 renal
28.7 µM: CCRF-CEM leukemia
30.1 µM: U251 CNS
29.5 µM: HCT-116 colon
31 µM: COLO 205 colon
42.6 µM: HCT-15 colon
92.2 µM: A549 NSCLC
31.9 µM: ACHN renal
29 µM: SF-539 CNS
31.1 µM: NCI-H460 lung
37.5 µM: UACC-257 melanoma | OVCAR-4 ovarian
53.4 µM: MOLT-4 leukemia
29.9 µM: OVCAR-3 ovarian
34.8 µM: A498 renal
48.6 µM: HOP-92 NSCLC
39.3 µM: NCI-H226 lung
32.6 µM: SF-268 CNS
28 µM: SK-MEL-5 melanoma
43.1 µM: MDA-N
25.9 µM: MDA-MB-231 breast

OC1c2ccccc2CCC1C(O)(C(F)(F)F)C(F)(F)F (stereo not given)
not listed: UACC-257 melanoma | BT-549 breast
> 100 µM: all other assays above
